One data set deals with T1, human delta receptor (Homo sapiens, UniProt P41143).
T1 construct: purchased Perkin Elmer, Boston, Mass; 6110549; host or cells: HEK-293 cells
The experiment in a line: radioligand binding, human delta receptor, HEK-293 cell membranes. Particulars: cell not marked (rat), species not given, read-out: δ.

A further data set addresses T2, human mu opioid receptor (Homo sapiens, UniProt P35372).
T2 construct: purchased Perkin Elmer, Boston, Mass; 6110535; host or cells: CHO cells
The experiment in a line: radioligand binding, human mu opioid receptor, CHO cell membranes. Particulars: species not given, read-out: μ.

The next data set has as its system mouse vas deferens. Description: electrically stimulated mouse vas deferens (MVD) ED50. Particulars: ED50, inhibition of electrically induced contractions. The class given is cell-based.
The next data set concerns guinea pig ileum. The experiment in a line: electrically stimulated guinea pig ileum (GPI) ED50. Particulars: Cavia porcellus; ED50, inhibition of electrically induced contractions. The class given is cell-based. How it is done: Further the compounds of formula (1) were evaluated for in vitro opioid receptor activity in various receptor systems, including mouse vas deferens (Mouse Vas Deferens ED50), and guinea pig ileum (Guinea Pig Ileum ED50). The assay procedures used for such determinations of receptor activity are set out below.
Intact ileums (about 3 cm length) were removed from guinea pig and suspended with 1 g of tension in a bath chamber as described for the vasa deferentia. The ileums were stimulated with electrical square-wave pulses of 0.1-Hz, 1 msec pulse duration at supramaximal voltage.
The ED50 values were extrapolated from curves showing the dose concentration plotted against the response (J. A. H. Lord, A. A. Waterfield, J. Hughes, H. W. Kosterlitz, Nature 267, 495, (1977)).

Data set [1] has as its system seizure-like convulsions in mice. Description: mouse seizure-like convulsions. The class given is in vivo. In short, it runs like this:
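Male CD-1 mice (Charles River, Raleigh, N.C.) of 20-25 g were dosed and watched for one hour to detect seizure-like convulsions mediated by central delta receptors. An event was counted when clonic or tonic/clonic muscle movements involved the whole body, usually followed by brief catalepsy, judged by no attempt to withdraw front paws from a bar 2-3 inches above the floor.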

T1 sequence (P41143 whole entry): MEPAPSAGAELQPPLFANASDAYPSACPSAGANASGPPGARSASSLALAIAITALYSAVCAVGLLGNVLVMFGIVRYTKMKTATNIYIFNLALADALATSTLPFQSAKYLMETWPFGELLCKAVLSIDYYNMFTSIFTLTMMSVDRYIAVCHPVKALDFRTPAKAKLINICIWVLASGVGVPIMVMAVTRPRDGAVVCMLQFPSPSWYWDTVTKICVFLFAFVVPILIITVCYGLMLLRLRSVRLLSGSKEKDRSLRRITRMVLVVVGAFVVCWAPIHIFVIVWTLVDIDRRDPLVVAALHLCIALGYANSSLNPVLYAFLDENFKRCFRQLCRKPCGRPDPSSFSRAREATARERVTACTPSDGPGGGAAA
T2 sequence (P35372 whole entry): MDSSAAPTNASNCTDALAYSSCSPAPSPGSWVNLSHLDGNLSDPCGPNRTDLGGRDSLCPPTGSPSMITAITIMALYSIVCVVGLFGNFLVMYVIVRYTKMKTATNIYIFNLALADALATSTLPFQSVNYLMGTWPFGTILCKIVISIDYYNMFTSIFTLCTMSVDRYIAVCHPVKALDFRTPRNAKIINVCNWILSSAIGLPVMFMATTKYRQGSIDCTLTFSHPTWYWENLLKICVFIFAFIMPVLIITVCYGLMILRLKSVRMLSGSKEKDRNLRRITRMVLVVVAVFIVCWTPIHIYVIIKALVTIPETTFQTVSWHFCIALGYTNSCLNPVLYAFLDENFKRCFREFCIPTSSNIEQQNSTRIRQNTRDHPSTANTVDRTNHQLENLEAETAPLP

The term EC50 denotes the concentration at which the effect is half-maximal. Regarding `C=CCN1C[C@H](C)N(C(c2cccc(O)c2)c2cccc(C(=O)N3CCCN(Cc4ccc(C(=O)O)cc4)CC3)c2)C[C@H]1C` (stereo partly drawn), the values for the Ki at human delta receptor and at human mu opioid receptor were 0.39 nM and 4 nM, respectively. The EC50 in the data set with mouse vas deferens was found to be 3.1 nM; in the data set with guinea pig ileum it was 150 nM. In data set [1] (10 mg/kg IV), this compound had a Seiz. of 0% 10 mg/kg IV.

Regarding `C[C@@H]1CN([C@@H](c2cccc(O)c2)c2cccc(C(=O)N3CCN(CCCCCC(=O)O)CC3)c2)[C@@H](C)CN1Cc1ccccc1` [Example 97, 6-(4-{3-[(R)-((2S,5R)-4-Benzyl-2,5-dimethyl-piperazin-1-yl)-(3-hydroxy-phenyl)-methyl]-benzoyl}-piperazin-1-yl)-hexanoic acid], the Ki on human delta receptor turned out to be 1.2 nM. In addition, the EC50 in the data set on mouse vas deferens amounted to 2.5 nM; with guinea pig ileum it was 445 nM. Moreover, in data set [1] (10 mg/kg IV), the Seiz. was 0% 10 mg/kg IV.

In the case of `C[C@@H]1CN([C@@H](c2cccc(O)c2)c2cccc(C(=O)N3CCN(CC(=O)O)CC3)c2)[C@@H](C)CN1Cc1ccccc1` [Example 69, (4-{3-[(R)-((2S,5R)-4-Benzyl-2,5-dimethyl-piperazin-1-yl)-(3-hydroxy-phenyl)-methyl]-benzoyl}-piperazin-1-yl)-acetic acid], the Ki at human delta receptor amounted to 0.54 nM; at human mu opioid receptor, 1.36 nM. Also, the values for the EC50 in the data set with mouse vas deferens and with guinea pig ileum were 0.48 nM and 47.8 nM, respectively. Moreover, in data set [1] (10 mg/kg IV), the Seiz. is listed as 0% 10 mg/kg IV.

As to `C[C@@H]1CN([C@@H](c2cccc(O)c2)c2cccc(C(=O)N3CCCN(CCC(=O)O)CC3)c2)[C@@H](C)CN1Cc1cccc(F)c1`, the values for the Ki on human delta receptor and on human mu opioid receptor were 4.17 nM and 7.7 nM, respectively. Moreover, the figures for the EC50 with mouse vas deferens and with guinea pig ileum were 4 nM and 154 nM, respectively. Besides, the Seiz. in data set [1] (20 mg/kg IV) and in data set [1] (200 mg/kg PO & SC) was 0% 200 mg/kg PO & SC 0% 20 mg/kg IV throughout.

For `C=CCN1C[C@H](C)N([C@@H](c2cccc(O)c2)c2cccc(C(=O)N3CCC(O)CC3)c2)C[C@H]1C` [Example 134, {3-[(R)-((2S,5R)-4-Allyl-2,5-dimethyl-piperazin-1-yl)-(3-hydroxy-phenyl)-methyl]-phenyl}-(4-hydroxy-piperidin-1-yl)-methanone], the Ki was 0.36 nM at human delta receptor and 1.1 nM at human mu opioid receptor. Moreover, the EC50 in the data set on mouse vas deferens is 5.44 nM; in the data set on guinea pig ileum, 46.7 nM. In data set [1] (10 mg/kg IV), this compound displayed a Seiz. of 0% 10 mg/kg IV.

In the case of `C=CCN1C[C@H](C)N([C@@H](c2cccc(O)c2)c2cccc(C(=O)N3CCN(CCCCC(=O)O)CC3)c2)C[C@H]1C` [Example 84, 5-(4-{3-[(R)-((2S,5R)-4-Allyl-2,5-dimethyl-piperazin-1-yl)-(3-hydroxy-phenyl)-methyl]-benzoyl}-piperazin-1-yl)-pentanoic acid], the Ki on human delta receptor was determined as 13.4 nM; at human mu opioid receptor, 57.3 nM. The figures for the EC50 in the data set with mouse vas deferens and in the data set with guinea pig ileum were 3.76 nM and 209 nM, respectively. Further, the Seiz. in data set [1] (10 mg/kg IV) was 0% 10 mg/kg IV.

For `CCOC(=O)CCN1CCCN(C(=O)c2cccc([C@H](c3cccc(O)c3)N3C[C@@H](C)N(CC4CC4)C[C@@H]3C)c2)CC1`, the figures for the Ki at human delta receptor and at human mu opioid receptor were 121 nM and 2.9 nM, respectively. The EC50 was 22.6 nM with mouse vas deferens and 567 nM in the data set with guinea pig ileum. This compound also had a Seiz. in data set [1] (10 mg/kg IV) of 0% 10 mg/kg IV.

With `C[C@@H]1CN([C@@H](c2cccc(O)c2)c2cccc(C(=O)N3CCC(C(=O)O)CC3)c2)[C@@H](C)CN1CC1CC1` [Example 127, 1-{3-[(R)-((1S,4R)-4-Cyclopropylmethyl-2,5-dimethyl-piperazin-1-yl)-(3-hydroxy-phenyl)-methyl]-benzoyl}-piperidine-4-carboxylic acid], the Ki on human delta receptor turned out to be 4.35 nM. Besides, the figures for the EC50 with mouse vas deferens and in the data set with guinea pig ileum were 11.5 nM and 242 nM, respectively. Besides, in data set [1] (10 mg/kg IV), the Seiz. came out at 0% 10 mg/kg IV.
